# Non-standard residues stand in square brackets, D forms with d. Residues, ends and D or L forms follow the SMILES beside them. *: point of attachment. Phe(4-CH2SO3H) = N[C@@H](Cc1ccc(CS(=O)(=O)O)cc1)C(=O)O; X1 = [N-]=[N+]=NCCOCCOCC*
# Legend:
# [1] = target: gp120-CD4 (Human immunodeficiency virus type 1 group M subtype B, UniProt P35961); type: binding, HIV-1; conditions: 1H NMR; 40:1 peptide:gp120-CD4
# [2] = Water solubility
structure (smiles),measurement,setting,value
CC[C@H](C)[C@H](NC(=O)[C@H](CC(=O)O)NC(=O)[C@H](Cc1ccc(CS(=O)(=O)O)cc1)NC(=O)[C@@H](NC(=O)[C@@H]1CCCN1C(=O)[C@H](CO)NC(=O)[C@H](CO)NC(=O)[C@@H](NC(=O)[C@H](CCC(N)=O)NC(=O)[C@H](Cc1ccc(CS(=O)(=O)O)cc1)NC(=O)[C@@H](N)CC(=O)O)C(C)C)[C@@H](C)CC)C(=O)N[C@@H](CC(N)=O)C(=O)N[C@@H](Cc1ccc(CS(=O)(=O)O)cc1)C(=O)N[C@@H](Cc1ccc(O)cc1)C(=O)N[C@H](C(=O)N[C@@H](CO)C(=O)N[C@@H](CCC(=O)O)C(=O)N1CCC[C@H]1C(=O)N[C@@H](COCCOCCOCCN=[N+]=[N-])C(=O)O)[C@@H](C)O [compound 11] (H-D[Phe(4-CH2SO3H)]QVSSPI[Phe(4-CH2SO3H)]DIN[Phe(4-CH2SO3H)]YTSEPS(X1)-OH; N-terminus and C-terminus assumed),"Increase in line width between free and bound peptides, 10δ",[1],2.4 Hz
same,"Increase in line width between free and bound peptides, 14δ",[1],2.8 Hz
same,"Increase in line width between free and bound peptides, 15δ",[1],1.9 Hz
same,"Increase in line width between free and bound peptides, 15ε",[1],3.2 Hz
same,solubility,[2],> 30 mM

# Source: article PMC2650494 (Bioorganic & medicinal chemistry, 2008)
